The results in this text go back to patent US9096624B2 (OSI Pharmaceuticals, LLC, priority 2009, dated 2015).

The target in assay [1] is T1, FAK (Homo sapiens, UniProt Q05397). Kind of assay: Cell-based capture ELISA for inhibition of FAK autophosphorylation [pY397] in MiaPaCa2 cells. As to the method: Cell-Based Assays for Inhibition of FAK Autophosphorylation: MiaPaCa2 and U87MG
ELISA kit from Invitrogen (KHO0441).
Reagents Provided in Biosource FAK [pY397]
The cells were then suspended in cell assay medium.
(In general: ELISA stands for enzyme-linked immunosorbent assay.)

The target of assay [2] is T1, FAK. Kind of assay: biochemical.
Setting [3] is: MIA-PaCa2 cells on fibronectin, 2 h, no plasma, read-out: Mean FAK Cell Mechanistic IC50 MIA-PaCa2.
Setting [4] is: MIA-PaCa2 cells, + 50% human plasma, read-out: Mean FAK Cell Mechanistic IC50 + 50% hP MIA-PaCa2.
The mark [5] stands for this setting: MIA-PaCa2 cells, + 50% mouse plasma (Table 2), read-out: Mean FAK Cell Mechanistic IC50 + 50% mP MIA-PaCa2.

One may read the pIC50 as the negative decadic logarithm of the IC50, by convention in mol/L.

pIC50: −log10 of the molar value. Bounds are passed on as bounds.

T1 sequence (Q05397 whole entry): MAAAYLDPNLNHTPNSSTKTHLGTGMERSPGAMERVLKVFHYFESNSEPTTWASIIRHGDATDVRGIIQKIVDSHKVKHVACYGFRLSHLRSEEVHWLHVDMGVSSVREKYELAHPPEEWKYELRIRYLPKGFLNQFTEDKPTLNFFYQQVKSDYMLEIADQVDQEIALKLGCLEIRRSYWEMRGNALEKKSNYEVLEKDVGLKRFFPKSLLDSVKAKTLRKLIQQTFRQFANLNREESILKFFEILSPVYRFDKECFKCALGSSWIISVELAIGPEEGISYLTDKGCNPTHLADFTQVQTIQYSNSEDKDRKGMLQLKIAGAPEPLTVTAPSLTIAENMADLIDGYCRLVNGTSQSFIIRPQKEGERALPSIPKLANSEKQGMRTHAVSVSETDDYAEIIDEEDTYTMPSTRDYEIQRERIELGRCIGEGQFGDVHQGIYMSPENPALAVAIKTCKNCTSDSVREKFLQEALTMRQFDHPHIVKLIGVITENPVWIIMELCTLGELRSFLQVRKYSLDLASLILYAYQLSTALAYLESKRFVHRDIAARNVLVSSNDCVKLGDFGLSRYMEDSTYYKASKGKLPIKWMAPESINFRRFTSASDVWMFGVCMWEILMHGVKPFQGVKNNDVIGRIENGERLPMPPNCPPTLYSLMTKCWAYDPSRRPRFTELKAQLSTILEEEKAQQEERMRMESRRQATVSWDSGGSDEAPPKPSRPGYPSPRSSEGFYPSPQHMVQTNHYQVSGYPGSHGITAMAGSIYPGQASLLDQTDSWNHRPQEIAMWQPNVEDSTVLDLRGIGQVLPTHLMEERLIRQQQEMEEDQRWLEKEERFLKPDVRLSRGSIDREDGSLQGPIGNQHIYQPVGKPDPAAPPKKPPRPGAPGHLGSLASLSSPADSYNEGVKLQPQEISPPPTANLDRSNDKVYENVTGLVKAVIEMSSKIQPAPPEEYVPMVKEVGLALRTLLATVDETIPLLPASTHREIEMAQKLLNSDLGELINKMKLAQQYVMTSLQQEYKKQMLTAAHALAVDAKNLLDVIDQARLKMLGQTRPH

Consider `CCOP(C)(=O)Cc1ccc(Nc2ncc(C(F)(F)F)c(Nc3ccc(-c4cnn(C)c4)c4c3C(=O)N(C)C4)n2)cc1` (stereo not shown) [Example 63, Ethyl methyl(4-{[4-{[2-methyl-7-(1-methyl-1H-pyrazol-4-yl)-3-oxo-2,3-dihydro-1H-isoindol-4-yl]amino}-5-(trifluoromethyl)pyrimidin-2-yl]amino}benzyl)phosphinate], for which the pIC50 in assay [1] (setting [3]), in assay [1] (setting [4]) and in assay [2] was more than 6.00 each time.
For the molecule `CCOP(C)(=O)Cc1ccc(Nc2ncc(C(F)(F)F)c(Nc3ccc(-c4cnn(CCO)c4)c4c3C(=O)N(C)C4)n2)cc1` (stereo not shown) [Example 64, Ethyl (4-{[4-({7-[1-(2-hydroxyethyl)-1H-pyrazol-4-yl]-2-methyl-3-oxo-2,3-dihydro-1H-isoindol-4-yl}amino)-5-(trifluoromethyl)pyrimidin-2-yl]amino}benzyl)methylphosphinate], the negative logarithm of the IC50 (pIC50) in assay [1] (setting [3]), in assay [1] (setting [4]) and in assay [2] was more than 6.00 each time.
As for `CCOP(C)(=O)Cc1ccc(Nc2ncc(C(F)(F)F)c(Nc3ccc(-c4cnn(C[C@@H](O)CO)c4)c4c3C(=O)N(C)C4)n2)cc1` (stereo partly drawn) [Example 65, Ethyl [4-({4-[(7-{1-[(2R)-2,3-dihydroxypropyl]-1H-pyrazol-4-yl}-2-methyl-3-oxo-2,3-dihydro-1H-isoindol-4-yl)amino]-5-(trifluoromethyl)pyrimidin-2-yl}amino)benzyl]methylphosphinate], the pIC50 in assay [1] (setting [3]), in assay [1] (setting [4]) and in assay [2] was more than 6.00 each time.
`CCOP(C)(=O)Cc1ccc(Nc2ncc(C(F)(F)F)c(Nc3ccc(-c4ccccc4)c4c3C(=O)N(C)C4)n2)cc1` (stereo not shown) [Example 66, Ethyl methyl[4-({4-[(2-methyl-3-oxo-7-phenyl-2,3-dihydro-1H-isoindol-4-yl)amino]-5-(trifluoromethyl)pyrimidin-2-yl}amino)benzyl]phosphinate]: the pIC50 in assay [1] (setting [5]) and in assay [2] was more than 6.00 throughout.
As for `CCOP(C)(=O)Cc1ccc(Nc2ncc(C(F)(F)F)c(Nc3ccc(-c4cn[nH]c4)c4c3C(=O)N(C)C4)n2)cc1` (stereo not shown) [Example 67, Ethyl methyl(4-{[4-{[2-methyl-3-oxo-7-(1H-pyrazol-4-yl)-2,3-dihydro-1H-isoindol-4-yl]amino}-5-(trifluoromethyl)pyrimidin-2-yl]amino}benzyl)phosphinate], the pIC50 in assay [1] (setting [3]), in assay [1] (setting [4]) and in assay [2] was more than 6.00 each time.
With `C=C(C)c1ccc(Nc2nc(Nc3ccc(CP(C)(=O)OCC)cc3)ncc2C(F)(F)F)c2c1CN(C)C2=O` (stereo not shown) [Example 68, Ethyl methyl(4-{[4-{[2-methyl-3-oxo-7-(prop-1-en-2-yl)-2,3-dihydro-1H-isoindol-4-yl]amino}-5-(trifluoromethyl)pyrimidin-2-yl]amino}benzyl)phosphinate], the pIC50 in assay [1] (setting [3]) is more than 6.00; in assay [1] (setting [4]), 5.00 to 6.00; in assay [2], more than 6.00.
With `CCOP(=O)(Cc1ccc(Nc2ncc(C(F)(F)F)c(Nc3ccc(-c4cnn(CCO)c4)c4c3C(=O)N(C)C4)n2)c(OC)c1)OCC` [Example 69, Diethyl (4-{[4-({7-[1-(2-hydroxyethyl)-1H-pyrazol-4-yl]-2-methyl-3-oxo-2,3-dihydro-1H-isoindol-4-yl}amino)-5-(trifluoromethyl)pyrimidin-2-yl]amino}-3-methoxybenzyl)phosphonate], the pIC50 in assay [1] (setting [3]), in assay [1] (setting [4]) and in assay [2] was more than 6.00 throughout.
Take `CCOP(=O)(Cc1ccc(Nc2ncc(C(F)(F)F)c(Nc3ccc(-c4cnn(C[C@H](O)CO)c4)c4c3C(=O)N(C)C4)n2)c(OC)c1)OCC` [Example 70, Diethyl [4-({4-[(7-{1-[(2S)-2,3-dihydroxypropyl]-1H-pyrazol-4-yl}-2-methyl-3-oxo-2,3-dihydro-1H-isoindol-4-yl)amino]-5-(trifluoromethyl)pyrimidin-2-yl}amino)-3-methoxybenzyl]phosphonate]: the negative-log IC50 (pIC50) in assay [1] (setting [3]), in assay [1] (setting [4]) and in assay [2] was more than 6.00 throughout.
`CCOP(=O)(Cc1ccc(Nc2ncc(C(F)(F)F)c(Nc3ccc(-c4cnn(C)c4)c4c3C(=O)N(C)C4)n2)c(OC)c1)OCC` [Example 71, Diethyl (3-methoxy-4-{[4-{[2-methyl-7-(1-methyl-1H-pyrazol-4-yl)-3-oxo-2,3-dihydro-1H-isoindol-4-yl]amino}-5-(trifluoromethyl)pyrimidin-2-yl]amino}benzyl)phosphonate]: the pIC50 in assay [1] (setting [3]), in assay [1] (setting [4]) and in assay [2] was more than 6.00 each time.
Consider `CCOP(=O)(Cc1ccc(Nc2ncc(C(F)(F)F)c(Nc3ccc(-c4cnn(CC(C)(C)O)c4)c4c3C(=O)N(C)C4)n2)c(OC)c1)OCC` [Example 72, Diethyl (4-{[4-({7-[1-(2-hydroxy-2-methylpropyl)-1H-pyrazol-4-yl]-2-methyl-3-oxo-2,3-dihydro-1H-isoindol-4-yl}amino)-5-(trifluoromethyl)pyrimidin-2-yl]amino}-3-methoxybenzyl)phosphonate], for which the negative-log IC50 (pIC50) in assay [1] (setting [5]) and in assay [2] was more than 6.00 throughout.
`CCOP(=O)(Cc1ccc(Nc2ncc(C(F)(F)F)c(Nc3ccc(C4=CCN(C(N)=O)CC4)c4c3C(=O)N(C)C4)n2)c(OC)c1)OCC` [Example 73, Diethyl (4-{[4-{[7-(1-carbamoyl-1,2,3,6-tetrahydropyridin-4-yl)-2-methyl-3-oxo-2,3-dihydro-1H-isoindol-4-yl]amino}-5-(trifluoromethyl)pyrimidin-2-yl]amino}-3-methoxybenzyl)phosphonate]: the pIC50 in assay [1] (setting [5]) and in assay [2] was more than 6.00 throughout.
As to `CCOP(C)(=O)Cc1ccc(Nc2ncc(C(F)(F)F)c(Nc3ccc(C#CC(C)(C)O)c4c3C(=O)N(C)C4)n2)cc1` (stereo not shown) [Example 75], the pIC50 in assay [1] (setting [3]), in assay [1] (setting [4]) and in assay [2] was more than 6.00 each time.
Consider `CCOP(C)(=O)Cc1ccc(Nc2ncc(C(F)(F)F)c(Nc3ccc(C#CC(C)O)c4c3C(=O)N(C)C4)n2)cc1` (stereo not shown) [Example 76, Ethyl (4-{[4-{[7-(3-hydroxybut-1-yn-1-yl)-2-methyl-3-oxo-2,3-dihydro-1H-isoindol-4-yl]amino}-5-(trifluoromethyl)pyrimidin-2-yl]amino}benzyl)methylphosphinate], for which the pIC50 in assay [1] (setting [3]) was more than 6.00; in assay [1] (setting [4]) it was 5.00 to 6.00; in assay [2], more than 6.00.
`CCOP(C)(=O)Cc1ccc(Nc2ncc(C(F)(F)F)c(Nc3ccc(C#CCO)c4c3C(=O)N(C)C4)n2)cc1` (stereo not shown) [Example 77, Ethyl (4-{[4-{[7-(3-hydroxyprop-1-yn-1-yl)-2-methyl-3-oxo-2,3-dihydro-1H-isoindol-4-yl]amino}-5-(trifluoromethyl)pyrimidin-2-yl]amino}benzyl)methylphosphinate]: the pIC50 in assay [1] (setting [3]), in assay [1] (setting [4]) and in assay [2] was more than 6.00 throughout.
Take `CCOP(C)(=O)Cc1ccc(Nc2ncc(C(F)(F)F)c(Nc3ccc(C(C)C)c4c3C(=O)N(C)C4)n2)cc1` (stereo not shown) [Example 78, Ethyl methyl(4-{[4-{[2-methyl-3-oxo-7-(propan-2-yl)-2,3-dihydro-1H-isoindol-4-yl]amino}-5-(trifluoromethyl)pyrimidin-2-yl]amino}benzyl)phosphinate]: the pIC50 in assay [1] (setting [3]) and in assay [2] was more than 6.00 throughout.
In the case of `CCOP(C)(=O)Cc1ccc(Nc2ncc(C(F)(F)F)c(Nc3ccc(C4CCC(O)CC4)c4c3C(=O)N(C)C4)n2)cc1` (stereo not shown) [Example 79, Ethyl (4-{[4-{[7-(4-hydroxycyclohexyl)-2-methyl-3-oxo-2,3-dihydro-1H-isoindol-4-yl]amino}-5-(trifluoromethyl)pyrimidin-2-yl]amino}benzyl)methylphosphinate], the pIC50 in assay [1] (setting [3]), in assay [1] (setting [4]) and in assay [2] was more than 6.00 each time.
`CCOP(C)(=O)Cc1ccc(Nc2ncc(C(F)(F)F)c(Nc3ccc(N4CCCC4)c4c3C(=O)N(C)C4)n2)cc1` (stereo not shown) [Example 80, Ethyl methyl(4-{[4-{[2-methyl-3-oxo-7-(pyrrolidin-1-yl)-2,3-dihydro-1H-isoindol-4-yl]amino}-5-(trifluoromethyl)pyrimidin-2-yl]amino}benzyl)phosphinate]: the pIC50 in assay [1] (setting [3]), in assay [1] (setting [4]) and in assay [2] was more than 6.00 throughout.
`CCOP(C)(=O)Cc1ccc(Nc2ncc(C(F)(F)F)c(Nc3ccc(N4CCC(O)C4)c4c3C(=O)N(C)C4)n2)cc1` (stereo not shown) [Example 81, Ethyl (4-{[4-{[7-(3-hydroxypyrrolidin-1-yl)-2-methyl-3-oxo-2,3-dihydro-1H-isoindol-4-yl]amino}-5-(trifluoromethyl)pyrimidin-2-yl]amino}benzyl)methylphosphinate]: the pIC50 in assay [1] (setting [3]), in assay [1] (setting [4]) and in assay [2] was more than 6.00 in each case.
In the case of `CCOP(C)(=O)Cc1ccc(Nc2ncc(C(F)(F)F)c(Nc3ccc(N4CCCCC4)c4c3C(=O)N(C)C4)n2)cc1` (stereo not shown) [Example 82, Ethyl methyl(4-{[4-{[2-methyl-3-oxo-7-(piperidin-1-yl)-2,3-dihydro-1H-isoindol-4-yl]amino}-5-(trifluoromethyl)pyrimidin-2-yl]amino}benzyl)phosphinate], the pIC50 in assay [1] (setting [3]), in assay [1] (setting [4]) and in assay [2] was more than 6.00 in each case.
On to `CCOP(=O)(Cc1ccc(Nc2ncc(C(F)(F)F)c(Nc3ccc(N4CCCC4)c4c3C(=O)N(C)C4)n2)c(OC)c1)OCC` [Example 83, Diethyl (3-methoxy-4-{[4-{[2-methyl-3-oxo-7-(pyrrolidin-1-yl)-2,3-dihydro-1H-isoindol-4-yl]amino}-5-(trifluoromethyl)pyrimidin-2-yl]amino}benzyl)phosphonate], for which the pIC50 in assay [1] (setting [5]) and in assay [2] was more than 6.00 each time.
